Results as given in article PMC11651181, “Discovery of 6α-Thiazolylcarboxamidonaltrexamine Derivative (NTZ) as a Potent and Central Nervous System Penetrant Opioid Receptor Modulator with Drug-like Properties for Potential Treatment of Opioid Use Disorder” (ACS Pharmacology & Translational Science, 2024).
“Also recorded” adds a separate entry of the source. Where a name gives a salt, the structure may show the parent alone. Read-outs that look alike come from different tables or passages of the source.

What was measured:
κ opioid receptor (KOR) = biological target: T1, κ opioid receptor (KOR) (Mus musculus, UniProt P33534); experiment: Competitive radioligand binding assay, KOR; settings: for Selectivity κ/μ: ratio of Ki values
T1 construct: expressed in transfected cells; host or cells: CHO (mKOR-CHO), membrane preparation
Procedure: (§1) The competition binding assay was performed using monoclonal mouse opioid receptors expressed in CHO cell lines (monoclonal human δ opioid receptor was used for the DOR assay).
(§2) The bound radioligand was separated using a Brandel harvester. Specific binding to the MOR, KOR, and DOR was calculated by subtracting the binding observed in the presence of 5 μM naltrexone, U50488, and SNC80, respectively, from the binding in their absence. Relative affinity values (IC50) were determined by fitting displacement binding inhibition data to a nonlinear regression model using GraphPad Prism 8.0 (GraphPad Software, San Diego, CA). The % inhibition was calculated using the formula: % inhibition = 100% - [(binding with the tested compound - nonspecific binding)/specific binding] × 100%. The IC50 values were converted to Ki values using the Cheng-Prusoff equation: Ki = IC50/ [1 + ([L*]/KD)], where [L*] is the concentration of the radioligand and KD is the KD of the radioligand.[68]

MOR [1] = biological target: T2, MOR (Mus musculus, UniProt P42866); experiment: MOR [35S]GTPγS functional assay; format: biochemical; settings: for Emax: read-out: MOR [35S]GTPγS Binding %Emax of DAMGO, relative to 3 μM DAMGO, mean ± SEM
T2 construct: expressed in transfected cells; host or cells: CHO (MOR-CHO), membrane preparation
Procedure: (§3) The [^35S]GTPγS functional assay was used to assess the efficacy of compounds at the MOR, KOR, and DOR. In this assay, 10 μg of MOR-CHO/KOR-CHO/DOR-CHO membrane protein was incubated in 500 μL of TME with 100 mM NaCl, 20 μM GDP, 0.1 nM [^35S]GTPγS, and varying concentrations of the compound for 1.5 h in a 30 °C water bath. Protein concentration was adjusted using the Bradford protein assay. […] After incubation, bound radioactivity was separated by filtration through GF/B glass fiber filters and measured by liquid scintillation counting. All assays were performed in duplicate and repeated at least three times. Net stimulated [35S]GTPγS binding was calculated as agonist-stimulated minus basal binding.

δ opioid receptor (DOR) = biological target: T3, δ opioid receptor (DOR) (Homo sapiens, UniProt P41143); experiment: Competitive radioligand binding assay, DOR
T3 construct: expressed in transfected cells; host or cells: CHO (hDOR-CHO), membrane preparation
Procedure: as §1, §2

μ opioid receptor (MOR) = biological target: T4, μ opioid receptor (MOR) (Mus musculus, UniProt P42866); experiment: Competitive radioligand binding assay, MOR
T4 construct: expressed in transfected cells; host or cells: CHO (mMOR-CHO), membrane preparation
Procedure: as §1, §2

Swiss Webster mice [2] = experiment: Warm-water tail immersion assay, agonism (acute antinociception); settings: single dose of 10 mg/kg s.c., n = 6, vs 10 mg/kg morphine
DOR = biological target: T5, DOR (Homo sapiens, UniProt P41143); experiment: DOR [35S]GTPγS functional assay; format: biochemical
T5 construct: expressed in transfected cells; host or cells: CHO (DOR-CHO), membrane preparation
Procedure: as §3

MOR [3] = biological target: T2, MOR; experiment: MOR calcium flux assay in Gαqi5-transfected mMOR-CHO cells; format: cell-based
Swiss Webster mice [4] = experiment: Warm-water tail immersion assay, antagonism of morphine-induced antinociception
morphine-pelleted mice = experiment: In vivo opioid withdrawal studies in morphine-pelleted mice; set-up: species or system mouse; settings: for Jumps, mean count / Paw tremors, mean count / Wet dog shake, mean count: 5 mg/kg s.c., counted over 20 min; for Precipitated withdrawal symptoms, in words: s.c.
Procedure: Swiss Webster mice (six males per group, weighing 25–35 g and aged 6–8 weeks) were used. Following a previously established protocol,[20] a 75 mg morphine pellet was implanted subcutaneously into the back of each mouse, and they were allowed to recover in their home cages. Prior to testing, the mice were habituated for 30 min in an open-topped, clear Plexiglas observation chamber (26 × 26 × 26 cm^3) with lines marking the floor into quadrants. […]. Withdrawal symptoms began within 3 min of antagonist administration. Escape jumps, paw tremors, and wet dog shakes were recorded by counting their occurrences over a 20 min period for each mouse. Results are expressed as the mean ± SEM.

KOR = biological target: T6, KOR (Mus musculus, UniProt P33534); experiment: KOR [35S]GTPγS functional assay; format: biochemical
T6 construct: expressed in transfected cells; host or cells: CHO (KOR-CHO), membrane preparation
Procedure: as §3

GI-tract motility = tested on: GI-tract motility; set-up: method as in PMID 22683223; settings: cited from earlier work
Swiss Webster mice [5] = tested on: Swiss Webster mice; set-up: method as in PMID 35255685; settings: warm-water tail immersion; cited from earlier work
Swiss Webster mice [6] = settings: cited from earlier work; for %MPE in single dose antagonism assay: in the presence of morphine; for AD50 (95% CL) for counteracting morphine-induced antinociception: mice

Compound | Ki (κ opioid receptor (KOR)) [nM] | Selectivity κ/μ (κ opioid receptor (KOR)) | EC50 (MOR [1]) [nM] | Emax (MOR [1]) [%] | Ki (δ opioid receptor (DOR)) [nM] | Ki (μ opioid receptor (MOR)) [nM] | IC50 (MOR [3]) [nM] | Jumps, mean count (morphine-pelleted mice) | Paw tremors, mean count (morphine-pelleted mice) | Wet dog shake, mean count (morphine-pelleted mice) | Precipitated withdrawal symptoms, in words (morphine-pelleted mice) | %MPE in single dose antagonism assay (Swiss Webster mice [6]) [%] | AD50 (95% CL) for counteracting morphine-induced antinociception (Swiss Webster mice [6]) | other results
O=C(N[C@H]1CC[C@@]2(O)[C@H]3Cc4ccc(O)c5c4[C@@]2(CCN3CC2CC2)[C@H]1O5)c1ccns1 [Compound 1, 17-Cyclopropylmethyl-3,14β-dihydroxy-4,5α-epoxy-6α-(5′-isothiazolylcarboxamido)-morphinan hydrochloride] | 1.81 ± 0.18 | 4 | 4.93 ± 0.8 | 15.6 ± 1.11 | 14.3 ± 0.66 | 0.51 ± 0.08 |  |  |  |  |  |  |  | Selectivity δ/μ (δ opioid receptor (DOR); ratio of Ki values): 28; Antinociceptive effect (MPE) compared to morphine, in words (Swiss Webster mice [2]): significantly lower than that of morphine
O=C(N[C@@H]1CC[C@@]2(O)[C@H]3Cc4ccc(O)c5c4[C@@]2(CCN3CC2CC2)[C@H]1O5)c1nccs1 [Compound 14, 17-Cyclopropylmethyl-3,14β-dihydroxy-4,5α-epoxy-6β-(2′-thiazolylcarboxamido)-morphinan hydrochloride] | 0.75 ± 0.08 | 2 | 0.56 ± 0.2 | 6.06 ± 0.52 | 117 ± 23.6 | 0.3 ± 0.04 | 12.4 ± 1.18 | 58.8 | 45.7 | 17.7 | fewer wet dog shakes and paw tremors at all testing doses than 1 mg/kg NLX |  |  | EC50 (DOR): 44 ± 6.82 nM; Emax (DOR; relative to 3 μM SNC80, mean ± SEM, read-out: DOR [35S]GTPγS binding % Emax of SNC80): 25.9 ± 0.4%; Agonistic activity in increasing intracellular calcium, in words (MOR [3]; compared to full MOR agonist DAMGO): no apparent agonism; also recorded: none of them showed any significant agonistic activity; AD50 (95% CL) for counteracting morphine-induced antinociception (Swiss Webster mice [4]; mice, s.c., given 5 min before morphine): 0.23 (0.04–1.37) mg/kg; Antagonism of morphine's antinociception, in words (Swiss Webster mice [4]; single dose of 10 mg/kg s.c. in the presence of morphine (10 mg/kg), n = 6): significantly antagonized; EC50 (KOR): 9.67 ± 1.81 nM; Emax (KOR; relative to 3 μM U50488H, mean ± SEM, read-out: KOR [35S]GTPγS binding % Emax of U50488H): 39.8 ± 2.82%
O=C(N[C@@H]1CC[C@@]2(O)[C@H]3Cc4ccc(O)c5c4[C@@]2(CCN3CC2CC2)[C@H]1O5)c1ccncc1 [NAP, 17-Cyclopropylmethyl-3,14β-Dihydroxy-4,5α-Epoxy-6β-[(4′-Pyridyl)Carboxamido]Morphinan] |  |  |  |  |  |  |  |  |  |  |  |  |  | ED50 in gastrointestinal (GI)-tract motility assay (GI-tract motility): 8.8 µg/kg
O=C(N[C@H]1CC[C@@]2(O)[C@H]3Cc4ccc(O)c5c4[C@@]2(CCN3CC2CC2)[C@H]1O5)c1cccs1 [NAT, reference compound] |  |  |  |  |  |  | 42.1 ± 4.51 | 45.8 | 29.2 | 14.5 | Significant withdrawal symptoms | 2.1 ± 1.7 | 0.42 (0.21–0.82) mg/kg | %MPE in single dose agonism assay (Swiss Webster mice [5]): 15.2 ± 8.8%
C=CCN1CC[C@]23c4c5ccc(O)c4O[C@H]2C(=O)CC[C@@]3(O)[C@H]1C5 [NLX, naloxone] |  |  |  |  |  |  |  |  |  |  | precipitated significant withdrawal symptoms | 2.9 ± 1.3 | 0.05 (0.03–0.09) mg/kg | 
